From patent US8604033B2, “Preparation of 4-amino-thiazoles and 3-amino-1,2,4-thiadiazoles and their use as allosteric modulators of metabotropic glutamate receptors” (Addex Pharma S.A., priority 2010, dated 2013) come the findings set out here.

Several values for one entry are separate records, joined by “and”; a condition that tells them apart may be missing. Equal values may be shown once.

Data set [1] has as its target T1, recombinant human mGluR4a receptors (Homo sapiens, UniProt Q14833).
T1 construct: expressed in transfected cells
As to the kind of experiment: mGluR4 assay on HEK-expressing human mGluR4 (fluorescent cell based Ca2+ mobilization assay, FLIPR). The following applies: HEK-293 cells expressing hmGluR4; enhancement of EC25 glutamate response; mean of at least three independent experiments in duplicate; read-out: Ca^2+ Flux (mean EC50). The text has this:
mGluR4 Assay on HEK-Expressing Human mGluR4 The compounds of the present invention are positive allosteric modulators of mGluR4 receptor. Their activity was examined on recombinant human mGluR4a receptors by detecting changes in intracellular Ca^2+ concentration, using the fluorescent Ca^2+-sensitive dye Fluo4-(AM) and a Fluorometric Imaging Plate Reader (FLIPR, Molecular Devices, Sunnyvale, Calif.). The cDNA encoding the human metabotropic glutamate receptor (hmGluR4), (accession number NM_000841.1, NCBI Nucleotide database browser), was subcloned into an expression vector containing also the hygromycin resistance gene. In parallel, the cDNA encoding a G protein allowing redirection of the activation signal to intracellular calcium flux was subcloned into a different expression vector containing also the puromycin resistance gene. Transfection of both these vectors into HEK293 cells with PolyFect reagent (Qiagen) according to supplier's protocol, and hygromycin and puromycin treatment allowed selection of antibiotic resistant cells which had integrated stably one or more copies of the plasmids. Positive cellular clones expressing hmGluR4 were identified in a functional assay measuring changes in calcium fluxes in response to glutamate or selective known mGluR4 orthosteric agonists and antagonists. HEK-293 cells expressing hmGluR4 were maintained in media containing DMEM, dialyzed Fetal Calf Serum (10%), Glutamax™ (2 mM), Penicillin (100 units/mL), Streptomycin (100 μg/mL), Geneticin (100 μg/mL) and Hygromycin-B (40 μg/mL) and puromycin (1 μg/mL) at 37° C./5% CO2. Human mGluR4HEK-293 cells were plated out 24 hours prior to FLIPR^384 assay in black-walled, clear-bottomed, poly-L-ornithine-coated 384-well plates at a density of 25,000 cells/well in a glutamine/glutamate free DMEM medium containing foetal bovine serum (10%), penicillin (100 units/mL) and streptomycin (100 μg/mL) at 37° C./5% CO2. On the day of the assay, the medium was aspirated and the cells were loaded with a 3 μM solution of Fluo4-AM (LuBioScience, Lucerne, Switzerland) in 0.03% pluronic acid. After 1 hour at 37° C./5% CO2, the non incorporated dye was removed by washing cell plate with the assay buffer and the cells were left in the dark at room temperature for […] before testing. All assays were performed in a pH 7.4 buffered-solution containing 20 mM HEPES, 143 mM NaCl, 6 mM KCl, 1 mM MgSO4, 1 mM CaCl2, 0.125 mM sulfapyrazone and 0.1% glucose. After 10 s of basal fluorescence recording, various concentrations of the compounds of the invention were added to the cells. Changes in fluorescence levels were first monitored for 180 s in order to detect any agonist activity of the compounds. Then the cells were stimulated by an EC25 glutamate concentration for an additional 110 s in order to measure enhancing activities of the compounds of the invention. EC25 glutamate concentration is the concentration giving 25% of the maximal glutamate response. The concentration-response curves of representative compounds of the present invention were generated using the Prism GraphPad software (Graph Pad Inc, San Diego, USA). The curves were fitted to a four-parameter logistic equation: (Y=Bottom+(Top−Bottom)/(1+10^((Log EC50−X)*Hill Slope) allowing the determination of EC50 values. The Table 3 below represents the mean EC50 obtained from at least three independent experiments of selected molecules performed in duplicate.
(In general: Calcium assays in cells follow changes in intracellular calcium, usually with a dye or a luminescent sensor.)

T1 sequence (Q14833 33-912): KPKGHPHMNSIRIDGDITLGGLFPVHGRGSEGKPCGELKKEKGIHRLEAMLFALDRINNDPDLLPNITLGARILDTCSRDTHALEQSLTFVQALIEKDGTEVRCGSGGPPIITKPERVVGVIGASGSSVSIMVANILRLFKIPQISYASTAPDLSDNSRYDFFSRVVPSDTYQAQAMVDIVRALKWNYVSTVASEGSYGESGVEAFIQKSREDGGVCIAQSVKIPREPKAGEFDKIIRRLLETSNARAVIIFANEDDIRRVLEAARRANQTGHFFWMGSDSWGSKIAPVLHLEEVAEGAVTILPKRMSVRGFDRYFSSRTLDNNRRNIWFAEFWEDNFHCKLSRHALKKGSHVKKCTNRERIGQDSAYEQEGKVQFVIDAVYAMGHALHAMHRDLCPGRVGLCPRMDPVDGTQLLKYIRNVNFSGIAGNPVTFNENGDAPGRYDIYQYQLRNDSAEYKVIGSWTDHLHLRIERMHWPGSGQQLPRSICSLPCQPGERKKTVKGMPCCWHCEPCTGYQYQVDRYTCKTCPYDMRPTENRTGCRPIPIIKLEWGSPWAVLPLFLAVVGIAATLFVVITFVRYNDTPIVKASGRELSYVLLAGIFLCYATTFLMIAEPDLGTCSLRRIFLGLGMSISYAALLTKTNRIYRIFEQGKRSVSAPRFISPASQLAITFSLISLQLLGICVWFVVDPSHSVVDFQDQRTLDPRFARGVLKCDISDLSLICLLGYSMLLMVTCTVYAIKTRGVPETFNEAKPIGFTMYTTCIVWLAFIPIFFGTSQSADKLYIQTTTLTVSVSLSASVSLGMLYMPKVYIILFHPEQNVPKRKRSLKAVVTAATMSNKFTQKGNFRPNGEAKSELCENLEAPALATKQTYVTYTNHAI

For `c1ccc(Nc2csc(-c3cn[nH]c3)n2)nc1` [Compound 1-1, 2-(1H-Pyrazol-4-yl)-N-(pyridin-2-yl)thiazol-4-amine], the melting point (usually the temperature of the solid-liquid transition) was 207 to 209 °C and 209 to 210 °C. Besides, the EC50 (commonly the midpoint of the concentration-response curve) in data set [1] was less than 100 nM. As for `c1ccc(Nc2nsc(-c3cn[nH]c3)n2)nc1` [Compound 1-2, 5-(1H-Pyrazol-4-yl)-N-(pyridin-2-yl)-1,2,4-thiadiazol-3-amine], in data set [1], the 50% effective concentration (EC50) lay within 100 to 1000 nM. `Fc1cccc(Nc2csc(-c3cn[nH]c3)n2)n1` [Compound 1-3, N-(6-Fluoropyridin-2-yl)-2-(1H-pyrazol-4-yl)thiazol-4-amine] showed a melting point of 238 to 240 °C. The concentration for a half-maximal effect (EC50) in data set [1] is less than 100 nM. Molecule `Cc1ccnc(Nc2csc(-c3cn[nH]c3)n2)n1` [Compound 1-4, N-(4-Methylpyrimidin-2-yl)-2-(1H-pyrazol-4-yl)thiazol-4-amine] had a melting point of 230 to 232 °C. The concentration giving a half-maximal response (EC50) in data set [1] fell in the range of 100 to 1000 nM. `COc1ccnc(Nc2csc(-c3cn[nH]c3)n2)n1` [Compound 1-5, N-(4-Methoxypyrimidin-2-yl)-2-(1H-pyrazol-4-yl)thiazol-4-amine]: the melting point fell in the range of 250 to 252 °C. Moreover, in data set [1], the EC50 is 100 to 1000 nM.

As for `Cc1cccc(Nc2csc(-c3cn[nH]c3)n2)n1` [Compound 1-6, N-(6-Methylpyridin-2-yl)-2-(1H-pyrazol-4-yl)thiazol-4-amine], the EC50 in data set [1] was 100 to 1000 nM.

With `c1cnc(Nc2csc(-c3cn[nH]c3)n2)nc1` [Compound 1-7, 2-(1H-Pyrazol-4-yl)-N-(pyrimidin-2-yl)thiazol-4-amine], the melting point was 217 °C (dec.). Further, in data set [1], the EC50 is less than 100 nM. The matching figures for `FC(F)(F)c1n[nH]cc1-c1nc(Nc2ccccn2)cs1` [Compound 1-8, N-(Pyridin-2-yl)-2-(3-(trifluoromethyl)-1H-pyrazol-4-yl)thiazol-4-amine]: 204 to 206 °C and 100 to 1000 nM. The molecule `c1ccc(Nc2csc(-c3c[nH]nc3C3CC3)n2)nc1` [Compound 1-9, 2-(3-Cyclopropyl-1H-pyrazol-4-yl)-N-(pyridin-2-yl)thiazol-4-amine] displayed a melting point of 141.3 °C. Moreover, in data set [1], the concentration for a half-maximal effect (EC50) is less than 100 nM. In turn, `c1cnc(Nc2csc(-c3c[nH]nc3C3CC3)n2)nc1` [Compound 1-10, 2-(3-Cyclopropyl-1H-pyrazol-4-yl)-N-(pyrimidin-2-yl)thiazol-4-amine] registered a melting point of 241 °C. Moreover, the concentration for a half-maximal effect (EC50) in data set [1] is less than 100 nM. For `FC(F)(F)c1n[nH]cc1-c1nc(Nc2ncccn2)cs1` [Compound 1-11, N-(Pyrimidin-2-yl)-2-(3-(trifluoromethyl)-1H-pyrazol-4-yl)thiazol-4-amine], in data set [1], the EC50 was less than 100 nM.
